Measurements: patent publication US20260224588A1, “BENZODIAZEPINONE-DERIVED INHIBITORS OF EGFR AND HER2” (The Research Foundation for the State University of New York, priority 2023, published 2026)
Read-outs that look alike come from different tables or passages of the source.

What was measured:
[1] = target: T1, ABL1(E255K)-phosphorylated (Homo sapiens, UniProt P00519, E255K); experiment: KINOMEscan; assay type: binding; details: 1 μM of compound 4; read-out: POC
T1 construct: purchased Eurofins DiscoverX Corporation

AURKB = AURKB (Homo sapiens, UniProt Q96GD4); experiment: KINOMEscan; assay type: binding; details: 1 μM of compound 4; read-out: POC
CAMK2A = CAMK2A (Homo sapiens, UniProt Q9UQM7); experiment: KINOMEscan; assay type: binding; details: 1 μM of compound 4; read-out: POC
HUNK = HUNK (Homo sapiens, UniProt P57058); experiment: KINOMEscan; assay type: binding; details: 1 μM of compound 4; read-out: POC
[2] = Metabolic stability in Human Liver Microsomes (HLM); assay type: in vitro ADME
Experimental: Metabolic stability in Human Liver Microsomes (HLM). Pooled liver microsomes from humans (male) were purchased from Sekisui XenoTech, LLC, Kansas City, KS, USA. Metabolic stability assays were performed in the presence of an NADPH-regenerating system consisting of 5 mM glucose-6-phosphate, 5 U/mL glucose-6-phosphate dehydrogenase, and 1 mM NADP^+. Liver microsomes (20 mg/mL), NADPH-regenerating system, and 4 mM MgCl2·6 H2O in 0.1 M TRIS-HCl-buffer (pH 7.4) were preincubated for 5 min at 37° C. and 750 rpm on a shaker. The reaction was started by adding the preheated compound at 10 mM resulting in a final concentration of 0.1 mM. The reaction was quenched at selected time points (0, 10, 20, 30, 60, and 120 min) by pipetting 100 μL of internal standard (ketoprofen) at a concentration of 150 μM in acetonitrile. The samples were vortexed for 30 s and centrifuged (21910 relative centrifugal force, 4° C., 20 min). The supernatant was used directly for LC-MS analysis. All compound incubations were conducted at least in triplicates. Additionally, a negative control containing BSA (20 mg/mL) instead of liver microsomes and a positive control using verapamil instead of compound were performed. A limit of 1% organic solvent during incubation was not exceeded. […]

HIPK3 = target: T2, HIPK3 (Homo sapiens, UniProt Q9H422); experiment: KINOMEscan; assay type: binding; details: 1 μM of compound 4; read-out: POC
T2 construct: purchased Eurofins DiscoverX Corporation

DMPK2 = DMPK2 (Homo sapiens, UniProt Q6DT37); experiment: KINOMEscan; assay type: binding; details: 1 μM of compound 4; read-out: POC
MYLK = MYLK (Homo sapiens, UniProt Q15746); experiment: KINOMEscan; assay type: binding; details: 1 μM of compound 4; read-out: POC
TNNI3K = target: T3, TNNI3K (Homo sapiens, UniProt Q59H18); experiment: KINOMEscan; assay type: binding; details: 1 μM of compound 4; read-out: POC
T3 construct: purchased Eurofins DiscoverX Corporation

BMPR1B = BMPR1B (Homo sapiens, UniProt O00238); experiment: KINOMEscan; assay type: binding; details: 1 μM of compound 4; read-out: POC
TAOK2 = target: T4, TAOK2 (Homo sapiens, UniProt Q9UL54); experiment: KINOMEscan; assay type: binding; details: 1 μM of compound 4; read-out: POC
T4 construct: purchased Eurofins DiscoverX Corporation

EPHB1 = target: T5, EPHB1 (Homo sapiens, UniProt P54762); experiment: KINOMEscan; assay type: binding; details: 1 μM of compound 4; read-out: POC
T5 construct: purchased Eurofins DiscoverX (KINOMEscan service)

PHKG2 = PHKG2 (Homo sapiens, UniProt P15735); experiment: KINOMEscan; assay type: binding; details: 1 μM of compound 4; read-out: POC
[3] = tested on: L858R/T790M EGFR mutant Ba/F3 cells; experiment: Ba/F3 cellular antiproliferative experiments; assay type: cell-based; details: Ba/F3, 72 hours, read-out: Anti-proliferative EC50 ± SE, LR/TM
Experimental: (§1) Ba/F3 Cellular Antiproliferative Experiments. The parental Ba/F3 cells was a generous gift from the laboratory of Dr. David Weinstock (in 2014), Dr. Pasi Jänne (2020) and was used to generate the wildtype EGFR, wildtype HER2, L858R, and L858R/T790M EGFR mutant Ba/F3 cells. These cells were previously characterized as described. All Ba/F3 cells were cultured in RPMI1640 media with 10% fetal bovine serum and 1% penicillin and streptomycin. All cell lines were tested negative for Mycoplasma using Mycoplasma Plus PCR Primer Set (Agilent) and were passaged and/or used for no longer than 4 weeks for all experiments. Assay reagents were purchased from MilliporeSigma (Cat #R7017-5G). Ba/F3 cells were plated and treated with increasing concentrations of inhibitors in triplicate for 72 hours. Compounds were dispensed using the Tecan D300e Digital Dispenser. Cellular growth or the inhibition of growth was assessed by resazurin viability assay. All experiments were repeated at least 3 times and values were reported as an average of n=3 with standard deviation.

[4] = tested on: L858R EGFR mutant Ba/F3 cells; experiment: Ba/F3 cellular antiproliferative experiments; assay type: cell-based; details: Mus musculus, BaF3, 72 h, Ba/F3, 72 hours; read-out: Anti-proliferative EC50 ± SE, LR
Experimental: as §1

[5] = tested on: wildtype HER2 Ba/F3 cells; experiment: Ba/F3 cellular antiproliferative experiments; assay type: cell-based; details: Mus musculus, BaF3; Ba/F3, 72 hours; read-out: Anti-proliferative EC50 ± SE, HER2
Experimental: as §1

LYN = LYN (Homo sapiens, UniProt P07948); experiment: KINOMEscan; assay type: binding; details: 1 μM of compound 4; read-out: POC
AXL = AXL (Homo sapiens, UniProt P30530); experiment: KINOMEscan; assay type: binding; details: 1 μM of compound 4; read-out: POC

Chain of BMPR1B (O00238 14-502): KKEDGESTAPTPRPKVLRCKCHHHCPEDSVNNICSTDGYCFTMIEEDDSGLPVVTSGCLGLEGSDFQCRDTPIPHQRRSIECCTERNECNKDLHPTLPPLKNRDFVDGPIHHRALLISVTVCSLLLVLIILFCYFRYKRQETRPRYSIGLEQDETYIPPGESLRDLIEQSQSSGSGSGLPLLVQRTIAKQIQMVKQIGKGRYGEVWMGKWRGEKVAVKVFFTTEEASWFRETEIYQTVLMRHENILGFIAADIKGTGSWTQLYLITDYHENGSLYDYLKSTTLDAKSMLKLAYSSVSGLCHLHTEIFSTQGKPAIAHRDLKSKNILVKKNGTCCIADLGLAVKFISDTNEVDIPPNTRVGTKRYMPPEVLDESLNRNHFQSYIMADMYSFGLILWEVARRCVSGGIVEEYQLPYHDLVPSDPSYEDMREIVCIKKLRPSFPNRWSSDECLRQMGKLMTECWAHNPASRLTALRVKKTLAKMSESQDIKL
Chain of DMPK2 (Q6DT37 whole entry): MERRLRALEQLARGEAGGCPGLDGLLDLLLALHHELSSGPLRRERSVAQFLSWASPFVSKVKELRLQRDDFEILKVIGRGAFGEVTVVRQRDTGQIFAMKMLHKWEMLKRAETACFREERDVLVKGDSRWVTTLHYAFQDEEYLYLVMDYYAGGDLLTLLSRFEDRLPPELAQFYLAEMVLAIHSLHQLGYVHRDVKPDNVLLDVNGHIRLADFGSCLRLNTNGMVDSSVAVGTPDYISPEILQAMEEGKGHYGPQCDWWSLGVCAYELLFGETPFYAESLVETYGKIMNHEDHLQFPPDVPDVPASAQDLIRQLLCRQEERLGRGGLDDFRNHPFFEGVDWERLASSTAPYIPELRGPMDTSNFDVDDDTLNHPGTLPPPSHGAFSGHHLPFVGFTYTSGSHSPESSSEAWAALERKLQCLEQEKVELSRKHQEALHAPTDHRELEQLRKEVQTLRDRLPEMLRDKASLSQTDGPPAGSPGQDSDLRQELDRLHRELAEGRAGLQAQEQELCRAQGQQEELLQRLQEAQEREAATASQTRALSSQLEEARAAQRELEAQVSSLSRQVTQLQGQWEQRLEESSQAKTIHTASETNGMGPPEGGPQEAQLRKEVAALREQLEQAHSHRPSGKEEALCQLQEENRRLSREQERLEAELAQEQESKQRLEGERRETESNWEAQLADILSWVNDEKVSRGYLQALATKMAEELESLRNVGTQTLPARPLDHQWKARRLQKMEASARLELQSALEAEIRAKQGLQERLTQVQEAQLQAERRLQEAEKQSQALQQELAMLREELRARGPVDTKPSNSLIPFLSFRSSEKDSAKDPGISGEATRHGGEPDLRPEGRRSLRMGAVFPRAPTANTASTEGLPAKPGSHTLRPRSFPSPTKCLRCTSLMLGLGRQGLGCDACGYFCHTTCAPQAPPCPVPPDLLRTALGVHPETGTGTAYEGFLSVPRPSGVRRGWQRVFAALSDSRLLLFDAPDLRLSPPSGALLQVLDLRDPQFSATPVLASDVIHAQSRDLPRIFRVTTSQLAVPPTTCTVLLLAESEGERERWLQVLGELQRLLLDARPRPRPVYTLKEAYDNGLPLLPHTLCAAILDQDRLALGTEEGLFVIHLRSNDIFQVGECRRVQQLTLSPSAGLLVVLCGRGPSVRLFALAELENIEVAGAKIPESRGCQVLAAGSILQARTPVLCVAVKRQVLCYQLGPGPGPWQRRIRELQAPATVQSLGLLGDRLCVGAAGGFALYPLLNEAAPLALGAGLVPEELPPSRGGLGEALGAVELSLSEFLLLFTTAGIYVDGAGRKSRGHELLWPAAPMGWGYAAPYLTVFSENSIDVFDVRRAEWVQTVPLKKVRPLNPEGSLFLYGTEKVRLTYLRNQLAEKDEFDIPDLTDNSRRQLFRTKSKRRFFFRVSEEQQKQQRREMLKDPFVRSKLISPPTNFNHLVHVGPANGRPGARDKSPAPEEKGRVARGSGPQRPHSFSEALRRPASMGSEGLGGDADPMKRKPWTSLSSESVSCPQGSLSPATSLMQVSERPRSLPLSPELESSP
Chain of HUNK (P57058 whole entry): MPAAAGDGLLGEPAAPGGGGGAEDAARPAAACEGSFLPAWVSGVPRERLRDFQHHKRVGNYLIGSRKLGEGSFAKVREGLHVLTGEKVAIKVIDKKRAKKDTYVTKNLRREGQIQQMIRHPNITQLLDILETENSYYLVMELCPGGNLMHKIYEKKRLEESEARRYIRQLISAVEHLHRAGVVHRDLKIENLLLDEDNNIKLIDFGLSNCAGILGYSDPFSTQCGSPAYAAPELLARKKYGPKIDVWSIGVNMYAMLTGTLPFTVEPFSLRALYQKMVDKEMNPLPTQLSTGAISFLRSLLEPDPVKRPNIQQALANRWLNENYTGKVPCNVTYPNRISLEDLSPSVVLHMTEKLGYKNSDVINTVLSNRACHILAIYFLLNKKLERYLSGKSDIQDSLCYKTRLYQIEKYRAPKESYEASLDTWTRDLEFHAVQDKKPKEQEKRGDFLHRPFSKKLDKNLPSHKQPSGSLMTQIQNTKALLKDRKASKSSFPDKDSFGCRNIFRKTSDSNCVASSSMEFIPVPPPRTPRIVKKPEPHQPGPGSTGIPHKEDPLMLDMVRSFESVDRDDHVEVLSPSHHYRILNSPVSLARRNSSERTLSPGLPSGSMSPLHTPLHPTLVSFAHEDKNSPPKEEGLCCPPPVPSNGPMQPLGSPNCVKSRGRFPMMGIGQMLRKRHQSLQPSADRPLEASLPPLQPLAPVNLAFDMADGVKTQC
T3 sequence (Q59H18 whole entry): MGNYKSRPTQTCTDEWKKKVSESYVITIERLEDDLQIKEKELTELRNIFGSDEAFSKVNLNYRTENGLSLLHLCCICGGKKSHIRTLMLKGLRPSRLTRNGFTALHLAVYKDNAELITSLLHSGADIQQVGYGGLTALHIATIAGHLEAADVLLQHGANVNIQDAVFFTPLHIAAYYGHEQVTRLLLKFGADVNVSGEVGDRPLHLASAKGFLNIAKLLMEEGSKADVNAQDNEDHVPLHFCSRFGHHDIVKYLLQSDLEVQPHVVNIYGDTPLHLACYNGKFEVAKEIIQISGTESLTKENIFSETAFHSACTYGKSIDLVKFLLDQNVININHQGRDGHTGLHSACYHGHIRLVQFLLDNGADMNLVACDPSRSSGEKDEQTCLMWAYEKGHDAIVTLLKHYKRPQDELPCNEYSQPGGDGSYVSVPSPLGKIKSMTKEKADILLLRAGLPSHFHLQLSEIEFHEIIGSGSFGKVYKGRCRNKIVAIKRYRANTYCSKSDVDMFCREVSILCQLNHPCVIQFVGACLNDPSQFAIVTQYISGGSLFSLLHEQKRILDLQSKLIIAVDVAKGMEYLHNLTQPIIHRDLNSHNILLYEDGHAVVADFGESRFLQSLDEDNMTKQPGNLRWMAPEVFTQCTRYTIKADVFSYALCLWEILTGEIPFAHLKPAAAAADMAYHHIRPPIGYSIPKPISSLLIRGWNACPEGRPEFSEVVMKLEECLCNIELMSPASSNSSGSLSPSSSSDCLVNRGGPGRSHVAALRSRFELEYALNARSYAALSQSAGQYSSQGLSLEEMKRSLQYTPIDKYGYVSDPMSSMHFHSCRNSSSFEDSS
Chain of AURKB (Q96GD4 whole entry): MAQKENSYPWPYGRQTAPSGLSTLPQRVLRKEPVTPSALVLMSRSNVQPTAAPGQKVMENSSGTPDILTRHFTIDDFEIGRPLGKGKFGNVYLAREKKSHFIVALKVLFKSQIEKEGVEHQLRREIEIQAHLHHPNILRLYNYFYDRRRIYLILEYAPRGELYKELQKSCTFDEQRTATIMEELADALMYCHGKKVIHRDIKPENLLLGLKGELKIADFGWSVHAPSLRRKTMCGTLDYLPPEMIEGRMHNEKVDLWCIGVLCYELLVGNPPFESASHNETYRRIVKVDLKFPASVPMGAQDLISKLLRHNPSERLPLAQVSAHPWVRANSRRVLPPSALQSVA
Chain of CAMK2A (Q9UQM7 whole entry): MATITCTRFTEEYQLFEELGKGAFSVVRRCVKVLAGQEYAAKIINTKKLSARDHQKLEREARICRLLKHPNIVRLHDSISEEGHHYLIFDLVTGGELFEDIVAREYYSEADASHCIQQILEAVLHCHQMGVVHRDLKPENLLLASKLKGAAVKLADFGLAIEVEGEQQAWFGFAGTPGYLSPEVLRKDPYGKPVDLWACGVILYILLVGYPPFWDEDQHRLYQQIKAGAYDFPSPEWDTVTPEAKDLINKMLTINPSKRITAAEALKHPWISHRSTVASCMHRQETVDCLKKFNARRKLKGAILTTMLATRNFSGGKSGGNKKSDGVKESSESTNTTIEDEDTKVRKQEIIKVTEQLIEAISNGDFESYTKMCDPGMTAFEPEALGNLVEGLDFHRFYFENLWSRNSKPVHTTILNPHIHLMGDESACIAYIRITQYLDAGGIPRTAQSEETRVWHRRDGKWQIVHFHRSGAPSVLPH
Chain of PHKG2 (P15735 whole entry): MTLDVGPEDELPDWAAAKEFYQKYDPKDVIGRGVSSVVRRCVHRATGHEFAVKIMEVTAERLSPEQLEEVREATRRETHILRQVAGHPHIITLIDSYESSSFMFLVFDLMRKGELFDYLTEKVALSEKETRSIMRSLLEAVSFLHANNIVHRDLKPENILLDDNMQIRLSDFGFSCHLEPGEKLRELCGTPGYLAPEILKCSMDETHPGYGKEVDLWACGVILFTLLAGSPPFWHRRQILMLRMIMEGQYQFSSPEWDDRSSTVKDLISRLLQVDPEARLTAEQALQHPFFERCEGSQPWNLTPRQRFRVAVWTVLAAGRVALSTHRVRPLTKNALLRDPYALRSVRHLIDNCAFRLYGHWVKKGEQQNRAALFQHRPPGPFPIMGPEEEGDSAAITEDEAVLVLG

C=CC(=O)Nc1ccc(OC)c(Nc2cc(-c3[nH]c(CC)nc3-c3cccc(NC(=O)c4cccc5c4NC(=O)c4ccccc4N5)c3)ccn2)c1 [Compound 4, N-(3-(5-(2-((5-Acrylamido-2-methoxyphenyl)amino)pyridin-4-yl)-2-ethyl-1H-imidazol-4-yl)phenyl)-11-oxo-10,11-dihydro-5H-dibenzo[b,e][1,4]diazepine-9-carboxamide]
remaining binding at 1 µM [1]: 65% | remaining binding at 1 µM (AURKB): 100% | remaining binding at 1 µM (CAMK2A): 65% | remaining binding at 1 µM (HUNK): 32% | Metabolic stability in liver microsomes [2]: metabolically stable | remaining binding at 1 µM (HIPK3): 100% | remaining binding at 1 µM (DMPK2): 0% | remaining binding at 1 µM (MYLK): 84% | remaining binding at 1 µM (TNNI3K): 89% | remaining binding at 1 µM (BMPR1B): 100% | remaining binding at 1 µM (TAOK2): 100% | remaining binding at 1 µM (EPHB1): 92% | remaining binding at 1 µM (PHKG2): 73% | EC50 [3]: 770 ± 390 nM | EC50 ([3]; Mus musculus, BaF3, 72 h): ~750 nM | EC50 [4]: ~200 nM | EC50 [5]: 1930 ± 1010 nM | remaining binding at 1 µM (LYN): 22% | remaining binding at 1 µM (AXL): 98%
